Measurements reported in patent US20170049718A1, “DRUG FOR TREATMENT OF TINNITUS PATIENTS” (KYORIN PHARMACEUTICAL CO., LTD., priority 2014, published 2017).

What was measured:
[1] = biological target: α9/α10 nicotinic acetylcholine receptors (Rattus norvegicus, UniProt P43144+Q9JLB5); conditions: Plazas, et al., Eur J Pharmacol., 2007; cited from earlier work
[2] = test system: patients having tinnitus; test: 24-week placebo controlled, randomized, double-blind comparative trial, TRSw score; type: in vivo, human; set-up: key to Change in TRSw score: LS mean change in TRSw score from week 0 to week 24; <0 = better; conditions: for Change in TRSw score, Neramexane-placebo / Change in TRSw score: 24 weeks; for Change in TRSw score: 50 mg/day
Source text: A therapeutic effect can be evaluated by physician inquiry using a questionnaire form such as TRSw (Tinnitus Rating Scale One-Week Version) (Acta Otolaryngol., 2013, 133(5), 491-498).
The efficacy of neramexane mesylate on patients with tinnitus associated with age-related hearing loss, tinnitus associated with auditory disorder in the range of the human voice at an auditory threshold value exceeding 25 dB, tinnitus that includes two or more different tinnitus sounds or tinnitus that includes a tinnitus sound that is not high-frequency alone, was evaluated in a 24-week, placebo controlled, randomized, double-blind comparative trial.
The film coated tablets containing 12.5 mg neramexane mesylate or placebo tablets were administered for 24 weeks to patients having tinnitus. The dosage was started from 12.5 mg/day, gradually increasing the dose to 50 mg/day over 4 weeks, and maintaining the same dose thereafter.
The therapeutic effect of neramexane mesylate for the patients was evaluated using the TRSw score. Statistical analysis was performed using a mixed-effect model repeated measure (MMRM) taking into consideration the covariance structure of error for the patient, with the change in TRSw score from before administration of neramexane mesylate tablets or placebo tablets (0 weeks) to each evaluation time point as the response variable, and with the drug-administered group, evaluation time point, interaction between drug-administered group and evaluation time point, 0-week TRSw score, gender and body weight as […]. The numerical values in the table represent least mean squares for the change in TRSw score at 24 weeks after administration. A change in score of less than 0 indicates a higher therapeutic effect.

[3] = biological target: T1, 5-HT3 receptors (Homo sapiens, UniProt P46098); conditions: cited from earlier work
T1 sequence (P46098 24-478): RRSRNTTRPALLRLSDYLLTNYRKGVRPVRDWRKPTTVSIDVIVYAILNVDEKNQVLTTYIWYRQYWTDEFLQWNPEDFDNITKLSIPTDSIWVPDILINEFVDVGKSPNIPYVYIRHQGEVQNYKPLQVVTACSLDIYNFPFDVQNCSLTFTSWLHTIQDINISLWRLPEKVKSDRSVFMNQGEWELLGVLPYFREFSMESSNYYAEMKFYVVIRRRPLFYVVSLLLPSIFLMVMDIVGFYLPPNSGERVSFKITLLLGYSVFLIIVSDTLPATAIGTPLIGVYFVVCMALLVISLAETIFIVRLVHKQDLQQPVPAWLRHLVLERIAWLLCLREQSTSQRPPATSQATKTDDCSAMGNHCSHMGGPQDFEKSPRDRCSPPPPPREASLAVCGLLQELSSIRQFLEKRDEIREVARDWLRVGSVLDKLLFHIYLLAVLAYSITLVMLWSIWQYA

[4] = Tinnitus associated with age-related hearing loss at hearing threshold of 25 dB or more in both ears in 4000 Hz and 8000 Hz
[5] = Tinnitus associated with age-related hearing loss at hearing threshold of 25 dB or more in both ears in 8000 Hz
[6] = Tinnitus associated with age-related hearing loss, exhibiting auditory disorder (>25 dB) in the range of the human voice
[7] = Tinnitus associated with auditory disorder (>25 dB) in the range of the human voice
[8] = Tinnitus including tinnitus sound not of high-frequency alone
[9] = Tinnitus including two or more different tinnitus sounds, associated with age-related hearing loss, exhibiting auditory disorder (>25 dB) in the range of the human voice
[10] = Tinnitus including two or more different tinnitus sounds, associated with age-related hearing loss
[11] = Tinnitus including two or more different tinnitus sounds

α9/α10 nicotinic acetylcholine receptors, sequence (P43144 26-479): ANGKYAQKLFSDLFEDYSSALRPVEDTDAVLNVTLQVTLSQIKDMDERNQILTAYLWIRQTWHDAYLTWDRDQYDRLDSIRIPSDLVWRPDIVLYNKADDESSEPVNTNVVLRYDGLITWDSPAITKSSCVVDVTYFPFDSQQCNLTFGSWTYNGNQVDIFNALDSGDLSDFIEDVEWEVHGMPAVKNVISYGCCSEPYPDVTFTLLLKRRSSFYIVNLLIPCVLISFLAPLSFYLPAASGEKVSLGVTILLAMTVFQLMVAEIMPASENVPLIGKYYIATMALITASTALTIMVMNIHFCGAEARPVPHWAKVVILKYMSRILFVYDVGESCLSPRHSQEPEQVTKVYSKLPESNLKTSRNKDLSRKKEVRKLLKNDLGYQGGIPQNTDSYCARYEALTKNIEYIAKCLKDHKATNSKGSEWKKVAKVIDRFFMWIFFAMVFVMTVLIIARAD
α9/α10 nicotinic acetylcholine receptors, sequence (Q9JLB5 25-447): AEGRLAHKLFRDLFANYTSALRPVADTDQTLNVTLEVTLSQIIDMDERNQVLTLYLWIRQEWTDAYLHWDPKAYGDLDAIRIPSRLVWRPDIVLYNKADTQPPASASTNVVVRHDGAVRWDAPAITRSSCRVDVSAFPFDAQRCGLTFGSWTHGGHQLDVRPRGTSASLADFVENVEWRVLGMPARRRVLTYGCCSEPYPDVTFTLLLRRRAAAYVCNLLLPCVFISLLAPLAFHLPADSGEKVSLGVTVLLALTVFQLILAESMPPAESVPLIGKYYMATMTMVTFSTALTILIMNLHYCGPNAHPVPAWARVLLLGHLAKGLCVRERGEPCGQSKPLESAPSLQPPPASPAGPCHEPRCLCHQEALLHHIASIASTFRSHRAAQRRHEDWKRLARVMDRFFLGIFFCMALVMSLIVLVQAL

For CC1(C)CC(C)(C)CC(C)(N)C1 [Neramexane, 1-amino-1,3,3,5,5-pentamethylcyclohexane], the “inhibiting activity on α9/α10 nicotinic acetylcholine receptors” value [1] is given as “exhibits inhibiting activity”, the “Change in TRSw score, Neramexane-placebo” value [2, 4] is given as −2.0 and the “Change in TRSw score” value [2, 4] is given as −2.5. For the same compound, the “Change in TRSw score, Neramexane-placebo” value [2, 5] was −1.5, the “Change in TRSw score” value [2, 5] was −2.2 and the “Change in TRSw score, Neramexane-placebo” value [2, 6] was −2.0. The “Change in TRSw score” value [2, 6] was −3.6, the “Change in TRSw score, Neramexane-placebo” value ([2]; Tinnitus associated with age-related hearing loss) was −0.5 and the “Change in TRSw score” value ([2]; Tinnitus associated with age-related hearing loss, least mean squares) was −2.5. The “Change in TRSw score, Neramexane-placebo” value [2, 7] was −0.6, the “Change in TRSw score” value [2, 7] was −1.7 and the “Change in TRSw score, Neramexane-placebo” value [2, 8] was −0.7. For the same compound, the “Change in TRSw score” value [2, 8] was −2.0, the “Change in TRSw score, Neramexane-placebo” value [2, 9] was −4.7 and the “Change in TRSw score” value [2, 9] was −5.0. The “Change in TRSw score, Neramexane-placebo” value [2, 10] was −2.7, the “Change in TRSw score” value [2, 10] was −4.1 and the “Change in TRSw score, Neramexane-placebo” value [2, 11] was −0.5. For the same compound, the “Change in TRSw score” value [2, 11] was −2.2, the “therapeutic effect compared to placebo” value ([2]; combined groups: age-related hearing loss with auditory disorder >25 dB, two or more sounds with age-related hearing loss, all three criteria) was “unexpectedly excellent therapeutic effect” and the “therapeutic effect compared to placebo” value ([2]; single-criterion groups: age-related hearing loss, auditory disorder >25 dB in range of human voice, two or more tinnitus sounds, sound not high-frequency alone) was “superior therapeutic effect”. For the same compound, the “inhibiting activity on 5-HT3 receptors” value [3] was “exhibits inhibiting activity”.
